Patent US20100093696A1, “2-AMINO PYRIMIDINE COMPOUNDS” (Pfizer Inc., priority 2007, published 2010)
Counter-ions that a name gives are not always drawn.

Target: HSP-90 (Homo sapiens, UniProt P07900)
Assay: HSP-90 SPA (scintillation proximity assay) competition binding assay, tritiated Compound A radioligand (G2)
Conditions: read-out: (G2): % inhibition

Row | Structure (SMILES) | inhibition at 10 µM [%]
1 | CCOC(=O)N1Cc2nc(N)nc(Oc3cc(C)c(Cl)c(C)c3)c2C1 [Example 25, ethyl 2-amino-4-(4-chloro-35-dimethylphenoxy)-5,7-dihydro-6H-pyrrolo[34-d]pyrimidine-6-carboxylate hydrochloride] | 0
2 | CCOC(=O)N1Cc2nc(N)nc(-n3ccc4ccc(F)cc43)c2C1 [Example 46, ethyl 2-amino-4-(6-fluoro-1H-indol-1-yl)-5,7-dihydro-6H-pyrrolo[3,4-d]pyrimidine-6-carboxylate] | 0
3 | CCOC(=O)N1Cc2nc(N)nc(Oc3ccc(Cl)cc3OC)c2C1 [Example 27, ethyl 2-amino-4-(4-chloro-2-methoxyphenoxy)-5,7-dihydro-6H-pyrrolo[3,4-d]pyrimidine-6-carboxylate] | 0
4 | CCOC(=O)N1Cc2nc(N)nc(Oc3ccc(Cl)cc3Br)c2C1 [Example 23, ethyl 2-amino-4-(2-bromo-4-chlorophenoxy)-5,7-dihydro-6H-pyrrolo[34-d]pyrimidine-6-carboxylate] | 0
